Assay results: patent US20100210467A1, “AGENT FOR IMPROVING SUGARCANE BRIX AND METHOD OF PROMOTING SUGARCANE RIPENING USING THE SAME” (Kumiai Chemical Industry Co., Ltd., priority 2007, published 2010)

Tests used:
Format in all cases: in vivo
sugarcane [1] = assay: Example 1: sugar content of sugarcane stem juice after power-sprayer application, field test in Brazil
Procedure: With respect to sugarcane grown in a sugarcane cultivated area in Brazil (an average Brix value in the harvesttime being 18%), a juice was collected from 5 middle internodes selected at random in the sugarcane stem and the Brix value was measured according to a usual method. At the time the measured Brix value became 82% of the aforementioned average Brix value, a bispyribac-sodium formulation (a commercially available product, a tradename “NOMINEE 400SC”) was diluted with water so that the amount of the effective ingredient in 74 liters of the spraying liquid could be equal to the used amount shown in Table 1. The liquid was then sprayed above the plant by the aid of a power sprayer to a test area at a rate of 74 liters per hectare.
(§1) In a control area, a known sulfometuron-methyl formulation (a commercially available product, a tradename “CURAVIAL”) was similarly sprayed.
Next, 10 individual sugarcanes were cut from each area on the initial day of spraying, after 30 days of spraying and after 45 days of spraying, and thereafter the stem was squeezed and sugar was recovered from the juice to obtain the yield. Each yield was compared with the yield of the initial day of spraying and the rate of increase (%) was calculated.
(§2) In accordance with “NORMAS DE AVALIAçÃO DA […] DA CANA-DE-AçÚCAR” used in Brazilian sugar refining plants as Standard for quality evaluation of sugarcane, the analysis on the sugar content in the squeezed juice of sugarcane stem was carried out for Brix value, sugar content in sugarcane (PC), and total sugar amount recoverable from sugarcane stem (ATR) as follows.
(§3) Brix was measured according to a digital refractometer. PC was calculated according to the equation (1). ATR was calculated according to the equation (5).
S denotes a sugar content in the extracted liquid and is calculated according to the equation (2). F denotes an amount of fibers in sugarcane and is calculated according to the equation (3). C denotes a conversion coefficient from the sugar content in the extracted liquid to an absolute amount and is calculated according to the equation (4).
LAI denotes a measured value by the digital saccharimeter after clarification of the juice by a clarifying mixture made from aluminum.
PBU denotes the mass of a wet bagasse exhausted from a pressing machine in the squeezed step of sugarcane stem.
ARC denotes an amount of reducing sugar of sugarcane and is calculated from the following equation (6).
AR denotes an amount of reducing sugar in the extracted liquid and is calculated from the following equation (7).

sugarcane [2] = assay: Example 2: sugar content of sugarcane stem juice after spraying from an aircraft, field test in Brazil; settings: after 30 days of spraying
Procedure: as §2, §3
At the time the Brix value of sugarcane grown in a sugarcane cultivated area in Brazil (an average Brix value in the harvesttime being 21%) became 81% of the aforesaid average Brix value, a bispyribac-sodium formulation (a commercially available product, a tradename “NOMINEE 400SC”) was diluted with water so that the amount of the effective ingredient in 30 liters of the spraying liquid could be equal to the used amount shown in Table 3, and the liquid was sprayed over the test area from an air-craft at a rate of 30 liters per hectare.
In a control area, a known fluazifop formulation (a commercially available product, a tradename “[…]”) was similarly sprayed.
Next, 5 individual sugarcanes were cut from 5 locations in each area, i.e. 25 sugarcanes from each area, on the initial day of spraying and after 30 days of spraying, and thereafter the stems were squeezed and sugar was recovered from the juice to obtain the yield. The yield after 30 days of spraying was compared with the yield of the initial day of spraying and the rate of increase (%) was calculated. The analysis on the sugar content in the squeezed juice of sugarcane stems was carried out similarly as in the case of Example 1.

sugarcane [3] = assay: Example 5: sugar content of sugarcane stem juice after bispyribac-sodium and/or gibberellin spraying, field test in Brazil; settings: 20 g/ha
Procedure: as §2, §3
At the time the Brix value of sugarcane grown in a sugarcane cultivated area in Brazil (an average Brix value in the harvesttime being 18%) became 88% of the aforesaid average Brix value, a bispyribac-sodium formulation (a commercially available product, a tradename, “NOMINEE 400SC”) and a gibberellin formulation (a commercially available product, a tradename, “PRO-GIBB”) were admixed together and diluted with water or separately diluted with water so that the amount of the effective ingredient in 105 liters of each of the spraying liquids could be equal to the used amount shown in Table 8, and each liquid was sprayed above the plant by the aid of a CO2-pressurized back pack sprayer to the test area at a rate of 105 liters per hectare.
as §1
(§4) Next, 20 individual sugarcanes were cut from each area on the initial day of spraying, after 15 days of spraying, after 30 days of spraying and after 45 days of spraying, and thereafter the stems were squeezed and sugar was recovered from the juice to obtain the yield. Each yield was compared with the yield of the initial day of spraying and the rate of increase (%) was calculated. The analysis on the sugar content in the squeezed juice of sugarcane stems was carried out similarly as in the case of Example 1.

sugarcane [4] = assay: Example 6: sugar content of sugarcane stem juice after bispyribac-sodium + prohexadione-calcium spraying, field test in Brazil; settings: 200 g/ha
Procedure: as §2, §3
At the time the Brix value of sugarcane grown in a sugarcane cultivated area in Brazil (an average Brix value in the harvesttime being 20%) became 80% of the aforesaid average Brix value, a bispyribac-sodium formulation (a commercially available product, a tradename, “NOMINEE 400SC”) and a prohexadione-calcium formulation (a tradename, “VIVIFUL”) were admixed together and diluted with water so that the amount of the effective ingredient in 105 liters of each spraying liquid could be equal to the used amount shown in Table 10, and the liquid was sprayed above the plant by the aid of a CO2-pressurized back pack sprayer to the test area at a rate of 105 liters per hectare.
In a control area, a known trinexapac-ethyl formulation (a commercially available product, a tradename “MODDUS”) was similarly sprayed.
as §4

[5] = 16 g/ha, after 30 days of spraying
[6] = 16 g/ha, after 45 days of spraying
[7] = 35 g/ha, after 30 days of spraying
[8] = 35 g/ha, after 45 days of spraying

SMILES: COc1cc(OC)nc(Oc2cccc(Oc3nc(OC)cc(OC)n3)c2C(=O)O)n1 [Bispyribac-sodium]
- ATR increased rate from the initial day of spraying (sugarcane [1]; [5]): 23.1%
- Brix increased rate from the initial day of spraying (sugarcane [1]; [5]): 23.0%
- Concentration of soluble solid matter, Brix (sugarcane [1]; [5]): 18.4%
- PC increased rate from the initial day of spraying (sugarcane [1]; [5]): 25.7%
- Sugar content in sugarcane, PC (sugarcane [1]; [5]): 13.0%
- Total sugar amount recoverable from 1 kg of stem, ATR (sugarcane [1]; [5]): 129.7 g
- ATR increased rate from the initial day of spraying (sugarcane [1]; [6]): 44.9%
- Brix increased rate from the initial day of spraying (sugarcane [1]; [6]): 41.0%
- Concentration of soluble solid matter, Brix (sugarcane [1]; [6]): 21.1%
- PC increased rate from the initial day of spraying (sugarcane [1]; [6]): 50.9%
- Sugar content in sugarcane, PC (sugarcane [1]; [6]): 15.5%
- Total sugar amount recoverable from 1 kg of stem, ATR (sugarcane [1]; [6]): 152.7 g
- ATR increased rate from the initial day of spraying (sugarcane [1]; [7]): 32.0%
- Brix increased rate from the initial day of spraying (sugarcane [1]; [7]): 29.5%
- Concentration of soluble solid matter, Brix (sugarcane [1]; [7]): 20.5%
- PC increased rate from the initial day of spraying (sugarcane [1]; [7]): 35.9%
- Sugar content in sugarcane, PC (sugarcane [1]; [7]): 14.7%
- Total sugar amount recoverable from 1 kg of stem, ATR (sugarcane [1]; [7]): 145.1 g
- ATR increased rate from the initial day of spraying (sugarcane [1]; [8]): 42.1%
- Brix increased rate from the initial day of spraying (sugarcane [1]; [8]): 37.1%
- Concentration of soluble solid matter, Brix (sugarcane [1]; [8]): 21.7%
- PC increased rate from the initial day of spraying (sugarcane [1]; [8]): 47.6%
- Sugar content in sugarcane, PC (sugarcane [1]; [8]): 15.9%
- Total sugar amount recoverable from 1 kg of stem, ATR (sugarcane [1]; [8]): 156.2 g
- ATR increased rate from the initial day of spraying (sugarcane [2]; 25 g/ha): 22.3%
- Brix increased rate from the initial day of spraying (sugarcane [2]; 25 g/ha): 19.8%
- Concentration of soluble solid matter, Brix (sugarcane [2]; 25 g/ha): 19.9%
- PC increased rate from the initial day of spraying (sugarcane [2]; 25 g/ha): 24.1%
- Sugar content in sugarcane, PC (sugarcane [2]; 25 g/ha): 14.6%
- Total sugar amount recoverable from 1 kg of stem, ATR (sugarcane [2]; 25 g/ha): 141.8 g
- ATR increased rate from the initial day of spraying (sugarcane [2]; 30 g/ha): 22.1%
- Brix increased rate from the initial day of spraying (sugarcane [2]; 30 g/ha): 21.6%
- Concentration of soluble solid matter, Brix (sugarcane [2]; 30 g/ha): 20.8%
- PC increased rate from the initial day of spraying (sugarcane [2]; 30 g/ha): 25.2%
- Sugar content in sugarcane, PC (sugarcane [2]; 30 g/ha): 15.6%
- Total sugar amount recoverable from 1 kg of stem, ATR (sugarcane [2]; 30 g/ha): 149.0 g
- ATR increased rate from the initial day of spraying (sugarcane [3]; after 15 days of spraying): 6.2%
- Brix increased rate from the initial day of spraying (sugarcane [3]; after 15 days of spraying): 4.5%
- Concentration of soluble solid matter, Brix (sugarcane [3]; after 15 days of spraying): 16.2%
- Total sugar amount recoverable from 1 kg of stem, ATR (sugarcane [3]; after 15 days of spraying): 112.5 g
- ATR increased rate from the initial day of spraying (sugarcane [3]; after 30 days of spraying): 17.3%
- Brix increased rate from the initial day of spraying (sugarcane [3]; after 30 days of spraying): 11.7%
- Concentration of soluble solid matter, Brix (sugarcane [3]; after 30 days of spraying): 17.3%
- Total sugar amount recoverable from 1 kg of stem, ATR (sugarcane [3]; after 30 days of spraying): 124.2 g
- ATR increased rate from the initial day of spraying (sugarcane [3]; after 45 days of spraying): 19.1%
- Brix increased rate from the initial day of spraying (sugarcane [3]; after 45 days of spraying): 12.9%
- Concentration of soluble solid matter, Brix (sugarcane [3]; after 45 days of spraying): 17.5%
- Total sugar amount recoverable from 1 kg of stem, ATR (sugarcane [3]; after 45 days of spraying): 126.1 g

SMILES: CCOC(=O)C1CC(=O)C(=C(O)C2CC2)C(=O)C1 (stereo not drawn) [Trinexapac-ethyl, trinexapac-ethyl]
- ATR increased rate from the initial day of spraying (sugarcane [4]; after 15 days of spraying): 10.3%
- Brix increased rate from the initial day of spraying (sugarcane [4]; after 15 days of spraying): 8.0%
- Concentration of soluble solid matter, Brix (sugarcane [4]; after 15 days of spraying): 17.5%
- Total sugar amount recoverable from 1 kg of stem, ATR (sugarcane [4]; after 15 days of spraying): 125.3 g
- ATR increased rate from the initial day of spraying (sugarcane [4]; after 30 days of spraying): 18.0%
- Brix increased rate from the initial day of spraying (sugarcane [4]; after 30 days of spraying): 15.7%
- Concentration of soluble solid matter, Brix (sugarcane [4]; after 30 days of spraying): 18.8%
- Total sugar amount recoverable from 1 kg of stem, ATR (sugarcane [4]; after 30 days of spraying): 134.0 g
- ATR increased rate from the initial day of spraying (sugarcane [4]; after 45 days of spraying): 30.8%
- Brix increased rate from the initial day of spraying (sugarcane [4]; after 45 days of spraying): 24.7%
- Concentration of soluble solid matter, Brix (sugarcane [4]; after 45 days of spraying): 20.2%
- Total sugar amount recoverable from 1 kg of stem, ATR (sugarcane [4]; after 45 days of spraying): 148.5 g
